A value given as a limit tells only on which side of the number the result lay.

Assay [1] concerns the target wild type PRC2 (wtPRC2) complex (Homo sapiens, UniProt Q15910). Nature of the assay: EZH2 LC-MS Assay. The note with it: 40 nM wtPRC2 complex, 30 uM SAM, 1.5 uM H3K27me1 and 3 uM H3K27me3 peptides; SAH production. The assay is classed as biochemical. As to the method:
Representative compounds of the invention were serially and separately diluted 3-fold in DMSO to obtain twelve concentrations. Then the test compounds at each concentration (120 nL of each) were transferred by Mosquito into a 384-well Perkin Elmer ProxiPlate 384 plus plates. Solutions (6 μL) of 80 nM wild type PRC2 (wtPRC2) complex and 60 µM SAM in reaction buffer (20 mM Tris, pH 8.0, 0.1% BSA, 0.01% Triton, 0.5 mM DTT) were added to the wells that were then incubated with the test compound for 20 min. A 6 μL solution of 3 µM of the substrate peptide H3K27me1 (histone H3 [21-44]-K27me1-biotin) and 6 μM regulatory peptide H3K27me3 (histone H3 [21-44]-K27me3) in reaction buffer was added to initiate each reaction. The final components in the reaction solution include 40 nM wtPRC2 complex, 30 µM SAM, 1.5 µM H3K27me1 and 3 µM H3K27me3 peptides with varying concentration of the compounds. A positive control consisted of the enzyme at 40 nM, 30 μM SAM, 1.5 µM H3K27me1 and 3 µM H3K27me3 in the absence of the test compound, and a negative control consisted of 30 µM SAM, 1.5 µM H3K27me1 and 3 μM H3K27me3 only. Each reaction was incubated at room temperature for 120 min, then stopped by addition of 3 μL per of quench solution (2.5% TFA with 320 nM d4-SAH). The reaction mixture was centrifuged (Eppendorf centrifuge 5810, Rotor A-4-62) for 2 min at 2000 rpm and read on an API 4000 triple quadrupole mass spec with Turbulon Spray (Applied Biosystem) coupled with Prominence UFLC (Shimadzu). The levels of SAH production were normalized based on the values coming from the positive and negative controls to give percent enzyme activities. The data were fit to a dose response equation using the program Helios to get the […] values of the test compound.

The test system of assay [2] is H3K27 methylation in G401 cell. The experiment in a line: ELISA (H3K27 methylation) assay. The note with it: cultured 48 h with compound, normalized using H3 signal. The assay is classed as cell-based. The procedure:
ELISA (H3K27 methylation) assay
Representative compounds of the invention were serially and separately diluted 3-fold in DO to obtain a total of eight or twelve concentrations. Then the compounds were added to G401 cell cultured in 384-well plate at 1:500 dilution to obtain the highest concentration of 20 μM. The cells were further cultured for 48 h before ELISA procedure.
Histone extraction: Cells, in 384-well plate, were washed with PBS (10 x PBS buffer (80 g NaCl (Sigma, S3014), 2 g KCl (Sigma, 60128), 14.4 g Na2HPO4 (Sigma, S5136), 2.4 g KH2PO4 (Sigma, P9791) to 1 L water, pH to 7.4) and lysed with the addition of lysis buffer (0.4N HCl; 45 μl per well). The plate was gently agitated at 4° C. for 30 min. The cell lysate was neutralized with neutralization buffer (0.5 M sodium phosphate dibasic, pH 12.5. 1 mM DTT; 36 µL per well). The plate was agitated to ensure the lysates were well mixed prior to the ELISA protocol.
ELISA protocol: Cell lysates were transferred to the wells of a 384-well plate and the final volume was adjusted to 50 μL per well with PBS. The plate was sealed, centrifuged at 2,000 rpm for 2 min and incubated at 4° C. for about 16 h. The plate was washed with TBST buffer (1 x TBS (10x TBS: 24.2 g Tris (Sigma, T6066), 80 g NaCl (Sigma, S3014) to 1 L of water and adjust pH to 7.6 with HCl) with 0.1% Tween-20). Blocking buffer (TBST, 5% BSA; 50 µL per well) was added and the plate was incubated for 1 h at rt. The blocking buffer was removed and primary antibody was added (30 μL per well). The following dilutions were performed with blocking buffer: for anti-H3K27me3 antibody (Cell Signaling Technology, #9733), dilution was 1:1000; for anti-H3K27me2 antibody (Cell Signaling Technology, #9288), dilution was 1:100; for anti-H3 antibody (Abcam, Cat #24834), dilution was 1:1000. The primary antibody was incubated in the plate at rt for 1 h. The wells were washed with TBST and incubated with secondary antibody for 1 h at rt. For secondary antibodies, the following dilutions were carried out with blocking buffer: anti-rabbit antibody (Jackson ImmunoResearch, #111-035-003), dilution was 1:2000; and anti-mouse antibody (Cell signaling technology, #7076), dilution was 1:1000.
After 1 h of incubation at rt, the wells were washed with TBST. ECL substrate (Pierce, #34080) was added at 30 μL per well and the plates were centrifuged at 2,000 rpm for 2 min. The signal was read using a PerkinElmer Envision Reader. The H3K27 methylation readouts were normalized using H3 signal and then percentage inhibition was calculated against the samples treated with DO. The data were fit to a dose response curve using the program Helios to get the IC50 values of the test compound.
(ELISA stands for enzyme-linked immunosorbent assay.)

Sequence of wild type PRC2 (wtPRC2) complex (Q15910 whole entry): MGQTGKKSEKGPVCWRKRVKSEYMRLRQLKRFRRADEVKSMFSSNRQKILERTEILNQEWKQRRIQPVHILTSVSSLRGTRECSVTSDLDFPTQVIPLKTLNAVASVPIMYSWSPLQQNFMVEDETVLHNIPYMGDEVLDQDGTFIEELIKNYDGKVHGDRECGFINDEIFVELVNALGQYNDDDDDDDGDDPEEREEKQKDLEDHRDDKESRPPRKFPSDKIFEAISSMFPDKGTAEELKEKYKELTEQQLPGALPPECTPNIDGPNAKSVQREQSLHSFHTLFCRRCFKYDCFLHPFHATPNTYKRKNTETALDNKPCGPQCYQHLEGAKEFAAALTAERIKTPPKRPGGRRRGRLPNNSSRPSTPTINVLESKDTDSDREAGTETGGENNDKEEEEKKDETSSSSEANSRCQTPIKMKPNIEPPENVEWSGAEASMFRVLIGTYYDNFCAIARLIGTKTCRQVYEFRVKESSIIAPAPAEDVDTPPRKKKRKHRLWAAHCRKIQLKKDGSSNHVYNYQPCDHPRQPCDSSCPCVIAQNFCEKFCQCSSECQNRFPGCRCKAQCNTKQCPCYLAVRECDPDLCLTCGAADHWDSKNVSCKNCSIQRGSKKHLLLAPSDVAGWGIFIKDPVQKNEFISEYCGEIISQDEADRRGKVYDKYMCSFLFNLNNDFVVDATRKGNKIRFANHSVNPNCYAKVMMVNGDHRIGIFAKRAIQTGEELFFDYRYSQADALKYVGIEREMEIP
Sequence of wild type PRC2 (wtPRC2) complex (O75530 whole entry partner): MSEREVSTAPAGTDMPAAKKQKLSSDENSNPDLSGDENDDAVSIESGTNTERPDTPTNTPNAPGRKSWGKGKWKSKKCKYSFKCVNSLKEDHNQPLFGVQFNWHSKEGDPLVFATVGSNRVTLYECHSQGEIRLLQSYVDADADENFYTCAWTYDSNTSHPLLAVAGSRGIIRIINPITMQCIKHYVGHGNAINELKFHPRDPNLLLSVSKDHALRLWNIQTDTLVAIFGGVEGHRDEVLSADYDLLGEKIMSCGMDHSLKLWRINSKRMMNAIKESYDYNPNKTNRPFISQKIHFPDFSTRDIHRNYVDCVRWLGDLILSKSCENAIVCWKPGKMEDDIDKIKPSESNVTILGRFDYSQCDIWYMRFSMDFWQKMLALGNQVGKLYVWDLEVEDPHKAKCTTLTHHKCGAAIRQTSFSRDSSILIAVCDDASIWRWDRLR
Sequence of wild type PRC2 (wtPRC2) complex (Q15022 whole entry partner): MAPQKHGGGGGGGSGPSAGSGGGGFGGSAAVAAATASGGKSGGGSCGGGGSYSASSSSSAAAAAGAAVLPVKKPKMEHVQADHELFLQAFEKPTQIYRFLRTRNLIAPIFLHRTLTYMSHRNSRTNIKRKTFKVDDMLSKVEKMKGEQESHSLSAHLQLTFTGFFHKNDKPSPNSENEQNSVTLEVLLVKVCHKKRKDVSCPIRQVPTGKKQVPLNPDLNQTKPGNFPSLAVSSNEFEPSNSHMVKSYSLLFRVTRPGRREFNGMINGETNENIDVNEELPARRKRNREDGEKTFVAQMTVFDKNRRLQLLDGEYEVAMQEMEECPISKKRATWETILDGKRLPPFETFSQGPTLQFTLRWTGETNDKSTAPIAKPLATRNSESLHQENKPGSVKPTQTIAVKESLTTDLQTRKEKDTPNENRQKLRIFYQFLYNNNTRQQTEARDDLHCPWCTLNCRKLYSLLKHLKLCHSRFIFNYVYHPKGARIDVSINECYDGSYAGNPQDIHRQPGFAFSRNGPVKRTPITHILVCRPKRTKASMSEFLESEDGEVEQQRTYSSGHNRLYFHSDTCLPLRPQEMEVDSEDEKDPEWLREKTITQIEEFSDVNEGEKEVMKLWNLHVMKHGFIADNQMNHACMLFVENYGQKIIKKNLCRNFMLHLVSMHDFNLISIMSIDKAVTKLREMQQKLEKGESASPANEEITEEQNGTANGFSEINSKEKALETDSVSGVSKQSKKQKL

Turning to `Cc1ccc2ccc(N[C@H]3CC[C@H](CNc4ncc([C@@H](CO)C(=O)NC5COC5)cn4)CC3)nc2c1Cl` (single isomer, unassigned) [Example 7, (S)-2-(2-((((1r,4S)-4-((8-chloro-7-methylquinolin-2-yl)amino)cyclohexyl)methyl)amino)pyrimidin-5-yl)-3-hydroxy-N-(oxetan-3-yl)propanamide; or (R)-2-(2-((((1r,4R)-4-((8-chloro-7-methylquinolin-2-yl)amino)cyclohexyl)methyl)amino)pyrimidin-5-yl)-3-hydroxy-N-(oxetan-3-yl)propanamide], the IC50 lay within 50 to 100 nM in assay [1] and 10 to 100 nM in assay [2] (Homo sapiens, G-401, 48 h). Take `Cc1ccc2ccc(N[C@H]3CC[C@H](CNc4ncc([C@@H](CO)C(=O)NC5COC5)cn4)CC3)nc2c1Cl` (single isomer, unassigned) [Example 8, (S)-2-(2-((((1r,4S)-4-((8-chloro-7-methylquinolin-2-yl)amino)cyclohexyl)methyl)amino)pyrimidin-5-yl)-3-hydroxy-N-(oxetan-3-yl)propanamide; or (R)-2-(2-((((1r,4R)-4-((8-chloro-7-methylquinolin-2-yl)amino)cyclohexyl)methyl)amino)pyrimidin-5-yl)-3-hydroxy-N-(oxetan-3-yl)propanamide]: the IC50 is under 50 nM in assay [1] and under 10 nM in assay [2]. `Cc1ccc2ccc(N[C@H]3CC[C@H](CNc4ncc([C@H](O)C(=O)NC5COC5)cn4)CC3)nc2c1Cl` (single isomer, unassigned) [Example 10, (S)-2-(2-((((1r,4S)-4-((8-chloro-7-methylquinolin-2-yl)amino)cyclohexyl)methyl)amino)pyrimidin-5-yl)-2-hydroxy-N-(oxetan-3-yl)acetamide; or (R)-2-(2-((((1r,4R)-4-((8-chloro-7-methylquinolin-2-yl)amino)cyclohexyl)methyl)amino)pyrimidin-5-yl)-2-hydroxy-N-(oxetan-3-yl)acetamide]: the IC50 in assay [1] was 50 to 100 nM; in assay [2] (Homo sapiens, G-401, 48 h), 10 to 100 nM. With `Cc1ccc2ccc(N[C@H]3CC[C@H](CNc4ncc([C@H](O)C(=O)NC5COC5)cn4)CC3)nc2c1Cl` (single isomer, unassigned) [Example 11, (S)-2-(2-((((1r,4S)-4-((8-chloro-7-methylquinolin-2-yl)amino)cyclohexyl)methyl)amino)pyrimidin-5-yl)-2-hydroxy-N-(oxetan-3-yl)acetamide; or (R)-2-(2-((((1r,4R)-4-((8-chloro-7-methylquinolin-2-yl)amino)cyclohexyl)methyl)amino)pyrimidin-5-yl)-2-hydroxy-N-(oxetan-3-yl)acetamide], the IC50 in assay [1] is under 50 nM; in assay [2], under 10 nM. Compound `Cc1ccc2ccc(N[C@H]3CC[C@H](CNc4ncc([C@H](C)C(=O)NC5COC5)cn4)CC3)nc2c1Cl` (single isomer, unassigned) [Example 13, (S)-2-(2-((((1r,4S)-4-((8-chloro-7-methylquinolin-2-yl)amino)cyclohexyl)methyl)amino)pyrimidin-5-yl)-N-(oxetan-3-yl)propanamide; or (R)-2-(2-((((1r,4R)-4-((8-chloro-7-methylquinolin-2-yl)amino)cyclohexyl)methyl)amino)pyrimidin-5-yl)-N-(oxetan-3-yl)propanamide] came in with an IC50 in assay [1] of under 50 nM.

For the compound `Cc1ccc2ccc(N[C@H]3CC[C@H](CNc4ncc([C@H](C)C(=O)NC5COC5)cn4)CC3)nc2c1Cl` (single isomer, unassigned) [Example 14, (S)-2-(2-((((1r,4S)-4-((8-chloro-7-methylquinolin-2-yl)amino)cyclohexyl)methyl)amino)pyrimidin-5-yl)-N-(oxetan-3-yl)propanamide; or (R)-2-(2-((((1r,4R)-4-((8-chloro-7-methylquinolin-2-yl)amino)cyclohexyl)methyl)amino)pyrimidin-5-yl)-N-(oxetan-3-yl)propanamide], in assay [1], the IC50 is under 50 nM. In the case of `Cc1ccc2ccc(N[C@H]3CC[C@H](CNc4ncc(CC(=O)NC5COC5)cn4)CC3)nc2c1Cl` [Example 1, 2-(2-((((1R,4R)-4-((8-chloro-7-methylquinolin-2-yl)amino)cyclohexyl)methyl)amino)pyrimidin-5-yl)-N-(oxetan-3-yl)acetamide], the IC50 in assay [1] is under 50 nM; in assay [2] (Homo sapiens, G-401, 48 h), under 10 nM. On to `Cc1ccc2ccc(N[C@H]3CC[C@H](CNc4ncc(CC(=O)N(C)C5COC5)cn4)CC3)nc2c1Cl` [Example 2, 2-(2-((((1r,4r)-4-((8-chloro-7-methylquinolin-2-yl)amino)cyclohexyl)methyl)amino)pyrimidin-5-yl)-N-methyl-N-(oxetan-3-yl)acetamide], for which the IC50 in assay [1] is under 50 nM; in assay [2] (Homo sapiens, G-401, 48 h), under 10 nM. For `Cc1ccc2ccc(N[C@H]3CC[C@H](CNc4ncc(C(F)(F)C(=O)NC5COC5)cn4)CC3)nc2c1Cl` [Example 3, 2-(2-((((1r,4r)-4-((8-chloro-7-methylquinolin-2-yl)amino)cyclohexyl)methyl)amino)pyrimidin-5-yl)-2,2-difluoro-N-(oxetan-3-yl)acetamide] the same measures were under 50 nM and under 10 nM. With `Cc1ccc2ccc(N[C@H]3CC[C@H](CNc4ncc(C(C)(O)C(=O)NC5COC5)cn4)CC3)nc2c1Cl` (stereo partly drawn) [Example 4, 2-(2-((((1r,4r)-4-((8-chloro-7-methylquinolin-2-yl)amino)cyclohexyl)methyl)amino)pyrimidin-5-yl)-2-hydroxy-N-(oxetan-3-yl)propanamide], the IC50 in assay [1] is under 50 nM; in assay [2] (Homo sapiens, G-401, 48 h), over 100 nM.

`Cc1ccc2ccc(N[C@H]3CC[C@H](CNc4ncc(C(C#N)C(=O)NC5COC5)cn4)CC3)nc2c1Cl` (stereo partly drawn) [Example 5, 2-(2-((((1r,4r)-4-((8-chloro-7-methylquinolin-2-yl)amino)cyclohexyl)methyl)amino)pyrimidin-5-yl)-2-cyano-N-(oxetan-3-yl)acetamide]: the IC50 in assay [1] is under 50 nM; in assay [2] (Homo sapiens, G-401, 48 h), under 10 nM. Take `Cc1ccc2ccc(N[C@H]3CC[C@H](CNc4ncc(C(CO)C(=O)NC5COC5)cn4)CC3)nc2c1Cl` (stereo partly drawn) [Example 6, 2-(2-((((1r,4r)-4-((8-chloro-7-methylquinolin-2-yl)amino)cyclohexyl)methyl)amino)pyrimidin-5-yl)-3-hydroxy-N-(oxetan-3-yl)propanamide]: the IC50 is under 50 nM in assay [1] and under 10 nM in assay [2] (Homo sapiens, G-401, 48 h). As to `Cc1ccc2ccc(N[C@H]3CC[C@H](CNc4ncc(C(O)C(=O)NC5COC5)cn4)CC3)nc2c1Cl` (stereo partly drawn) [Example 9, 2-(2-((((1r,4r)-4-((8-chloro-7-methylquinolin-2-yl)amino)cyclohexyl)methyl)amino)pyrimidin-5-yl)-2-hydroxy-N-(oxetan-3-yl)acetamide], the IC50 in assay [1] is under 50 nM; in assay [2] (Homo sapiens, G-401, 48 h), under 10 nM.

A word on the IC50: it is the point on the concentration scale where inhibition reaches its midpoint.

Source of the values: US12473273B2, “Quinoline compounds and compositions for inhibiting EZH2” (Novartis AG, priority 2020, dated 2025).
